In ChEMBL document CHEMBL1255349, “Comparison of the efficacies of oral beta-lactams in selection of Haemophilus influenzae transformants with mutated ftsI genes” (2008) one finds MIC data, which are given here for nine molecules.

In brackets after ≈: the same amount, converted by molar mass.

Format in all cases: functional
Experiment [1] deals with Haemophilus influenzae. Kind of experiment: Antimicrobial activity against rifampin-resistant Haemophilus influenzae Rd clone by broth dilution method.
The test system of experiment [2] is Haemophilus influenzae. Description: Antimicrobial activity against beta lactamase-nonproducing ampicillin-resistant Haemophilus influenzae MSC06647 isolate harboring Asn526Lys mutation in penicillin-binding protein 3 by broth dilution method.
Experiment [3] relates to Haemophilus influenzae. Kind of experiment: Antimicrobial activity against beta lactamase-nonproducing ampicillin-resistant Haemophilus influenzae MSC06663 isolate harboring Met377Ile, Ser385Thr and Asn526Lys mutations in penicillin-binding protein 3 by broth dilution method.

As to `CC1(C)S[C@@H]2[C@H](NC(=O)[C@H](N)c3ccc(O)cc3)C(=O)N2[C@H]1C(=O)O` [AMOXICILLIN], the figures for the MIC in the experiment with Haemophilus influenzae [1], in the experiment with Haemophilus influenzae [2] and against Haemophilus influenzae [3] were 0.5 µg/mL (≈ 1.37 µM), 4 µg/mL (≈ 10.9 µM) and 1 µg/mL (≈ 2.74 µM), respectively.
The corresponding values for `CC1(C)S[C@@H]2[C@H](NC(=O)[C@H](N)c3ccccc3)C(=O)N2[C@H]1C(=O)O` [AMPICILLIN] are 0.25 µg/mL (≈ 0.715 µM), 2 µg/mL (≈ 5.72 µM) and 1 µg/mL (≈ 2.86 µM).
For the molecule `CC/C=C(\C(=O)N[C@@H]1C(=O)N2C(C(=O)O)=C(COC(N)=O)CS[C@H]12)c1csc(N)n1` [CEFCAPENE], the values for the MIC in the experiment with Haemophilus influenzae [1], against Haemophilus influenzae [2] and against Haemophilus influenzae [3] were 0.008 µg/mL (≈ 0.0176 µM), 0.25 µg/mL (≈ 0.551 µM) and 2 µg/mL (≈ 4.41 µM), respectively.
The corresponding values for `C=CC1=C(C(=O)O)N2C(=O)[C@@H](NC(=O)/C(=N\O)c3csc(N)n3)[C@H]2SC1` [CEFDINIR] are 0.25 µg/mL (≈ 0.632 µM), 1 µg/mL (≈ 2.53 µM) and 2 µg/mL (≈ 5.06 µM).
Taken in the same sequence, the figures for `CO/N=C(\C(=O)N[C@@H]1C(=O)N2C(C(=O)OCOC(=O)C(C)(C)C)=C(/C=C\c3scnc3C)CS[C@H]12)c1csc(N)n1` [CEFDITOREN PIVOXIL] were 0.008 µg/mL (≈ 0.0129 µM), 0.06 µg/mL (≈ 0.0967 µM) and 0.5 µg/mL (≈ 0.805 µM).
`COCC1=C(C(=O)O)N2C(=O)[C@@H](NC(=O)/C(=N\OC)c3csc(N)n3)[C@H]2SC1` [CEFPODOXIME]: the MIC with Haemophilus influenzae [1] is 0.03 µg/mL (≈ 0.0702 µM); in the experiment with Haemophilus influenzae [2] it was 1 µg/mL (≈ 2.34 µM); in the experiment with Haemophilus influenzae [3], 8 µg/mL (≈ 18.7 µM).
The corresponding values for `CC=CC1=C(C(=O)O)N2C(=O)[C@@H](NC(=O)[C@H](N)c3ccc(O)cc3)[C@H]2SC1` [CEFPROZIL] are 2 µg/mL (≈ 5.14 µM), 4 µg/mL (≈ 10.3 µM) and 4 µg/mL (≈ 10.3 µM).
As to `CO/N=C(\C(=O)N[C@@H]1C(=O)N2C(C(=O)O)=C(COC(N)=O)CS[C@H]12)c1ccco1` [CEFUROXIME], the MIC is 0.5 µg/mL (≈ 1.18 µM) with Haemophilus influenzae [1], 2 µg/mL (≈ 4.71 µM) with Haemophilus influenzae [2] and 2 µg/mL (≈ 4.71 µM) with Haemophilus influenzae [3].
Regarding `C[C@@H](O)[C@H]1C(=O)N2C(C(=O)O)=C(SC3CN(C4=NCCS4)C3)[C@H](C)[C@H]12` [TEBIPENEM], the MIC turned out to be 0.06 µg/mL (≈ 0.156 µM) against Haemophilus influenzae [1], 1 µg/mL (≈ 2.61 µM) against Haemophilus influenzae [2] and 0.25 µg/mL (≈ 0.652 µM) in the experiment on Haemophilus influenzae [3].
